Data from ChEMBL document CHEMBL1156491, “Unexpected inhibition of peptidoglycan LD-transpeptidase from Enterococcus faecium by the beta-lactam imipenem” (J Biol Chem, 2007).
Converted amounts (≈) assume the structure as drawn. The source made the active and inactive calls. The rule behind the calls is not given here.

Columns and labels:
[1] = tested on: Enterococcus faecium; assay: Antimicrobial activity against Enterococcus faecium D344S by agar dilution method after 48 hrs; format: functional
[2] = tested on: Enterococcus faecium; assay: Antimicrobial activity against Enterococcus faecium M512 by agar dilution method after 48 hrs; format: functional; settings: M512, 48 h
[3] = Inhibition of Enterococcus faecium LD-transpeptidase assessed by formation of Ac2-L-Lys-D-[14C]Ala from Ac2-L-Lys-D-Ala and D-[14C]Ala
[4] = tested on: Enterococcus faecium; assay: Inhibition of Enterococcus faecium M512 PBP5fm transpeptidase activity assessed as lactoyl tripeptide level; parameters: scale not given: the % may be the effect or the level left
[5] = tested on: Enterococcus faecium; assay: Inhibition of Enterococcus faecium M512 PBP5fm transpeptidase activity assessed as lactoyl tetra-peptide level; parameters: scale not given: the % may be the effect or the level left
[6] = tested on: Enterococcus faecium; assay: Inhibition of Enterococcus faecium M512 PBP5fm transpeptidase activity assessed as lactoyl tri-aspartate-peptide level; parameters: scale not given: the % may be the effect or the level left
[7] = tested on: Enterococcus faecium; assay: Inhibition of Enterococcus faecium M512 PBP5fm transpeptidase activity assessed as lactoyl penta-peptide level; parameters: scale not given: the % may be the effect or the level left
[8] = tested on: Enterococcus faecium; assay: Inhibition of Enterococcus faecium M512 PBP5fm transpeptidase activity assessed as lactoyl tetra-aspartate-peptide level; parameters: scale not given: the % may be the effect or the level left
[9] = tested on: Enterococcus faecium; assay: Inhibition of Enterococcus faecium M512 PBP5fm transpeptidase activity assessed as lactoyl penta-aspartate-peptide level; parameters: scale not given: the % may be the effect or the level left
[10] = tested on: Enterococcus faecium; assay: Inhibition of Enterococcus faecium M512 […] transpeptidase activity assessed as tetra-aspartate-tri multimer containing D-Ala4 to D-Asp-L-Lys3 cross links at 128 ug/ml by mass spectrometry; parameters: scale not given: the % may be the effect or the level left
[11] = tested on: Enterococcus faecium; assay: Inhibition of Enterococcus faecium M512 PBP5fm transpeptidase activity assessed as tetra-aspartate-tri-aspartate multimer containing D-Ala4 to D-Asp-L-Lys3 cross links at 128 ug/ml by mass spectrometry; parameters: scale not given: the % may be the effect or the level left
[12] = tested on: Enterococcus faecium; assay: Inhibition of Enterococcus faecium M512 PBP5fm transpeptidase activity assessed as tetra -aspartate-tetra multimer containing D-Ala4 to D-Asp-L-Lys3 cross links at 128 ug/ml by mass spectrometry; parameters: scale not given: the % may be the effect or the level left
[13] = tested on: Enterococcus faecium; assay: Inhibition of Enterococcus faecium M512 PBP5fm transpeptidase activity assessed as tetra -aspartate-penta multimer containing D-Ala4 to D-Asp-L-Lys3 cross links at 128 ug/ml by mass spectrometry; parameters: scale not given: the % may be the effect or the level left
[14] = tested on: Enterococcus faecium; assay: Inhibition of Enterococcus faecium M512 PBP5fm transpeptidase activity assessed as tetra -aspartate-tetra-aspartate multimer containing D-Ala4 to D-Asp-L-Lys3 cross links at 128 ug/ml by mass spectrometry; parameters: scale not given: the % may be the effect or the level left
[15] = tested on: Enterococcus faecium; assay: Inhibition of Enterococcus faecium M512 PBP5fm transpeptidase activity assessed as tetra -aspartate-penta-aspartate multimer containing D-Ala4 to D-Asp-L-Lys3 cross links at 128 ug/ml by mass spectrometry; parameters: scale not given: the % may be the effect or the level left
[16] = tested on: Enterococcus faecium; assay: Inhibition of Enterococcus faecium M512 PBP5fm transpeptidase activity assessed as tetra -aspartate-tetra -aspartate-tri-aspartate multimer containing D-Ala4 to D-Asp-L-Lys3 cross links at 128 ug/ml by mass spectrometry; parameters: scale not given: the % may be the effect or the level left
[17] = tested on: Enterococcus faecium; assay: Inhibition of Enterococcus faecium M512 PBP5fm transpeptidase activity assessed as tetra-aspartate-tetra-aspartate-tetra-aspartate multimer containing D-Ala4 to D-Asp-L-Lys3 cross links at 128 ug/ml by mass spectrometry; parameters: scale not given: the % may be the effect or the level left
[18] = tested on: Enterococcus faecium; assay: Inhibition of Enterococcus faecium M512 PBP5fm transpeptidase activity assessed as tetra-aspartate-tetra-aspartate-penta-aspartate multimer containing D-Ala4 to D-Asp-L-Lys3 cross links at 128 ug/ml by mass spectrometry; parameters: scale not given: the % may be the effect or the level left
[19] = tested on: Enterococcus faecium; assay: Inhibition of Enterococcus faecium LD transpeptidase assessed as enzyme aduct at 3.4 uM by mass spectrometry
[20] = tested on: Enterococcus faecium; assay: Inhibition of Enterococcus faecium LD-transpeptidase assessed by formation of Ac2-L-Lys-D-[14C]Ala from Ac2-L-Lys-D-Ala and D-[14C]Ala at 0.5 ug/ml
[21] = tested on: Enterococcus faecium; assay: Inhibition of Enterococcus faecium M512 LDtfm transpeptidase activity assessed as tri-aspartate tri multimer containing L-Lys3 to D-Asp-L-Lys3 cross links at 8 ug/ml; parameters: scale not given: the % may be the effect or the level left
[22] = tested on: Enterococcus faecium; assay: Inhibition of Enterococcus faecium M512 LDtfm transpeptidase activity assessed as tri-aspartate-tri-aspartate multimer containing L-Lys3 to D-Asp-L-Lys3 cross links at 8 ug/ml; parameters: scale not given: the % may be the effect or the level left
[23] = tested on: Enterococcus faecium; assay: Inhibition of Enterococcus faecium M512 LDtfm transpeptidase activity assessed as tri-aspartate-tetra multimer containing L-Lys3 to D-Asp-L-Lys3 cross links at 8 ug/ml; parameters: scale not given: the % may be the effect or the level left
[24] = tested on: Enterococcus faecium; assay: Inhibition of Enterococcus faecium M512 LDtfm transpeptidase activity assessed as tri-aspartate-tetra-aspartate multimer containing L-Lys3 to D-Asp-L-Lys3 cross links at 8 ug/ml; parameters: scale not given: the % may be the effect or the level left
[25] = tested on: Enterococcus faecium; assay: Inhibition of Enterococcus faecium M512 LDtfm transpeptidase activity assessed as tri-aspartate-penta multimer containing L-Lys3 to D-Asp-L-Lys3 cross links at 8 ug/ml; parameters: scale not given: the % may be the effect or the level left
[26] = tested on: Enterococcus faecium; assay: Inhibition of Enterococcus faecium M512 LDtfm transpeptidase activity assessed as tri-aspartate-penta-aspartate multimer containing L-Lys3 to D-Asp-L-Lys3 cross links at 8 ug/ml; parameters: scale not given: the % may be the effect or the level left
[27] = tested on: Enterococcus faecium; assay: Inhibition of Enterococcus faecium M512 LDtfm transpeptidase activity assessed as tri-aspartate-tri-aspartate-tri-aspartate multimer containing L-Lys3 to D-Asp-L-Lys3 cross links at 8 ug/ml; parameters: scale not given: the % may be the effect or the level left
[28] = tested on: Enterococcus faecium; assay: Inhibition of Enterococcus faecium M512 LDtfm transpeptidase activity assessed as tri-aspartate-tri-aspartate-tetra multimer containing L-Lys3 to D-Asp-L-Lys3 cross links at 8 ug/ml; parameters: scale not given: the % may be the effect or the level left
[29] = tested on: Enterococcus faecium; assay: Inhibition of Enterococcus faecium M512 LDtfm transpeptidase activity assessed as tri-aspartate-tri-aspartate-tetra-aspartate multimer containing L-Lys3 to D-Asp-L-Lys3 cross links at 8 ug/ml; parameters: scale not given: the % may be the effect or the level left
[30] = tested on: Enterococcus faecium; assay: Inhibition of Enterococcus faecium M512 LDtfm transpeptidase activity assessed as tri-aspartate-tri-aspartate-penta-aspartate multimer containing L-Lys3 to D-Asp-L-Lys3 cross links at 8 ug/ml; parameters: scale not given: the % may be the effect or the level left

Row | SMILES | MIC [1] [µg/mL] | MIC [2] [µg/mL] | EC50 [3] [µg/mL] | Activity [4] [%] | Activity [5] [%] | Activity [6] [%] | Activity [7] [%] | Activity [8] [%] | Activity [9] [%] | Activity [20] | further results
1 | CC(O)[C@H]1C(=O)N2C(C(=O)O)=C(SCCNC=N)C[C@H]12 (single isomer, unassigned) [IMIPENEM ANHYDROUS] | 0.25 (≈ 0.835 µM) | 0.5 (≈ 1.67 µM) | 0.077 (≈ 0.257 µM) | 1.4 | 2.2 | 4.5 | 2.8 | 3 | 5.4 | Active | Activity [10]: 0.9%; Activity [11]: 23.8%; Activity [12]: 1.7%; Activity [13]: 0.8%; Activity [14]: 12%; Activity [15]: 11.9%; Activity [16]: 24.7%; Activity [17]: 1.6%; Activity [18]: 3.3%; Activity [19]: Active
2 | CC(O)[C@H]1C(=O)N2C(C(=O)O)=C(S[C@@H]3CN[C@H](C(=O)N(C)C)C3)[C@H](C)[C@H]12 (single isomer, unassigned) [MEROPENEM] | 1 (≈ 2.61 µM) | 8 (≈ 20.9 µM) |  |  |  |  |  |  |  |  | 
3 | CC1(C)S[C@@H]2[C@H](NC(=O)[C@H](N)c3ccccc3)C(=O)N2[C@H]1C(=O)O [AMPICILLIN] | 0.06 (≈ 0.172 µM) | > 2000 | > 3200 | 7 | 0.5 | 18.4 | 1.3 | 10.6 | 3.7 |  | Activity [21]: 2.8%; Activity [22]: 18.7%; Activity [23]: 3.7%; Activity [24]: 6.8%; Activity [25]: 6.8%; Activity [26]: 6.1%; Activity [27]: 6.1%; Activity [28]: 3%; Activity [29]: 2.7%; Activity [30]: 1.8%
4 | CO/N=C(\C(=O)N[C@@H]1C(=O)N2C(C(=O)O)=C(CSc3nc(=O)c(O)nn3C)CS[C@H]12)c1csc(N)n1 [CEFTRIAXONE] | 2 (≈ 3.61 µM) | 128 (≈ 231 µM) | 19 (≈ 34.3 µM) |  |  |  |  |  |  | 200 µg/mL | 
5 | CC1C(S[C@@H]2CN[C@H](C(=O)Nc3cccc(C(=O)O)c3)C2)=C(C(=O)O)N2C(=O)[C@H]([C@H](C)O)[C@@H]12 (some centres not stated) [ETRAPENEM] | 1 (≈ 2.1 µM) | 16 (≈ 33.6 µM) |  |  |  |  |  |  |  |  | 
